Measurements: PubChem BioAssay AID179 (DTP/NCI, 2004)
Values joined by “and” are separate entries in the source; they are usually repeats but may differ in a detail not shown here. Equal entries are not always repeated. Active and inactive are the calls of the source.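 The calls were made as follows: active = compounds giving half or more protection of infected cells from virus-caused growth loss, again on retest; inactive = the rest.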 Where a SMILES comes first, the peptide text is derived from it. Bridges are numbered along the chain shown (N, C = ends). Side-chain parts run from the residue outwards. The star is where a group is joined. Cbz = O=C(OCc1ccccc1)*; Boc = CC(C)(C)OC(=O)*

Test system: CEM cells HIV-1 protection, formazan growth assay
Assay: NCI AIDS Antiviral Assay
Details: for IC50: measured here: growth of uninfected CEM cells
Summary of the method: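 Soluble formazan readout of cell growth; CEM cells ± HIV-1; 5 drug concs. ≥50% protection → retest; ≥50% again = moderately active; reproducible 100% = confirmed active.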

SMILES	EC50	IC50	outcome
O=C(CN1CCNCCN(CC(=O)N2CCCCC2)CCNCC1)N1CCCCC1	> 200 µM	10.5 µM	–
Cc1cc(NS(=O)(=O)c2ccc(Nc3c4ccccc4nc4c(C(=O)NCCN(C)C)ccc(Cl)c34)cc2)no1	–	–	inactive
S=c1sc(-c2ccccc2)c[se]1	> 50.1 µM	29.5 µM	–
CC(=O)c1c(C)n(C)c2c1nnc1ccccc12	> 41.7 µM	30.2 µM	–
CC[C@@]1(O)C(=O)OCc2c1cc1n(c2=O)Cc2c-1nc1ccccc1c2Cl	> 10 µM	0.0331 µM	–
Cc1cccc(/C=N/NC(=S)NC(C)(C)C)n1	> 200 µM	18.2 µM	–
Cc1ccc(S(=O)(=O)NCC2CCCCC2=O)cc1 (stereo not drawn)	> 129 µM	123 µM	–
Cn1c(=O)[nH]c2c(c1=O)CCCS2	> 251 µM	> 251 µM	–
C=C(COC(=O)C(C)C)[C@H]1Oc2ccc(C(C)=O)cc2[C@@H]1OC(=O)C(C)C	> 200 µM	> 200 µM	–
COc1ccc2c(c1)c1c(n2CCN2CCOCC2)-c2cccc(OC)c2CC1	–	–	inactive
Cc1cccc(C(C)C)c1NC(=O)C(=O)CC(=O)c1c(C)n([O-])c2ccccc2[n+]1=O	> 85.1 µM	17 µM	–
N#CC1=C(N)Oc2c(ccc3cccnc23)C1c1ccccc1 (stereo not drawn)	> 120 µM	1.7 µM	–
CCN(CC)CCC(=O)c1ccc(Oc2ccc(Cl)cc2)cc1	> 200 µM	30.2 µM	–
Cc1c(Cc2ccccc2)n(C(C)OCCO)c(=O)[nH]c1=O (stereo not drawn)	> 200 µM	> 200 µM	–
O=c1c(/C=N/OCCCCO/N=C/c2cc3c(cc2[N+](=O)[O-])OCO3)coc2c(Cl)cc(Cl)cc12	> 200 µM	75.9 µM	–
CCOC(=O)CC(C)C1(C(=O)OCC)CCCCC1=O (stereo not drawn)	> 331 µM	> 331 µM	–
[N-]=[N+]=NC12CC3CC(CC(C3)C1)C2	> 380 µM	> 380 µM	–
CC1(CCC(=O)c2ccc3c(c2)OCO3)OCCO1	> 97.7 µM	> 97.7 µM	–
Cc1cc(N(CCC#N)CCC#N)ccc1/C(N=Nc1ccccc1)=N\NC(=O)c1ccccc1	> 200 µM	13.8 µM	–
O=c1[nH]c(=O)n(Cc2ccccc2)cc1B(O)O	> 200 µM	> 200 µM	–
Cc1noc2c1CSC1=C2S(=O)(=O)N(C)c2ccccc21	> 58.9 µM	> 58.9 µM	–
CC1(Cl)CC2C(CC1Sc1nnnn1-c1ccccc1)C2(C)C (stereo not drawn)	> 20.9 µM	> 20.9 µM	–

SMILES	EC50	IC50	outcome
Cc1nc(-c2cccnc2)sc1C(=O)/C=C/c1ccc(Cl)cc1Cl	> 19.1 µM	> 19.1 µM	–
O=C(/N=C(\c1ccc(F)cc1)c1ccsc1-n1cccc1)Nc1ccccc1	> 200 µM	4.9 µM	–
CC1(C)Oc2ccc3ccccc3c2[C@@H](OC(=O)C23CCC(C)(C(=O)O2)C3(C)C)[C@H]1OC(=O)C12CCC(C)(C(=O)O1)C2(C)C (stereo partly drawn)	> 200 µM	3.55 µM	–
COc1cc2nc(NCCCCCNC(=O)c3ccco3)nc(N)c2cc1OC	> 575 µM	35.5 µM	–
Cc1cc2nc3n(c2cc1C)C(c1c(F)cccc1F)SC3 (stereo not drawn)	> 44.7 µM	20.9 µM	–
COc1ccc(-c2nnc3c4ccccc4sn23)cc1	> 25.7 µM	22.4 µM	–
N#CC(c1ccc(O)cc1)N1CCN(C(C#N)c2ccc(O)cc2)CC1 (stereo not drawn)	> 200 µM	> 200 µM	–
C=CC1(CC)/C(=N\O)C(CC)(CC)C(=O)N1O (stereo not drawn)	> 1050 µM	> 1050 µM	–
Nc1cccc2cn[nH]c12	> 1480 µM	229 µM	–
CCN(CC)CCOCCn1c2c(c3ccccc31)CCCC2	> 200 µM	30.9 µM	–
CCCCCC=C(c1cc(Br)c(OC)c(C(=O)O)c1)c1cc(Br)c(OC)c(C(=O)O)c1	> 200 µM	91.2 µM	–
OC1C#CCSCC#C/C=C\1 (stereo not drawn)	> 200 µM	10.5 µM	–
O=Nc1ccc(N=O)cc1	> 200 µM	> 200 µM	–
COc1cc(/C=C2\C(=O)N(C(=O)Cc3ccccc3)N=C2C)cc(OC)c1OC	> 25.1 µM	> 25.1 µM	–
CC/C(=N/O)c1ccc2[nH]c3c(C)cc([N+](=O)[O-])c(C)c3c2c1	> 12 µM	7.41 µM	–
Cc1nc(Nc2ccc(Cl)cc2)sc1C(=O)NNC(=S)NN	> 83.2 µM	33.1 µM	–
COc1ccc(Cc2nnc(C)c3c(C)[nH]nc23)cc1OC	–	–	inactive
c1csc([As](O[As](c2cccs2)c2cccs2)c2cccs2)c1	> 0.2 µM	0.102 µM	–
O=c1nc2ccccc2c2n1CCN2	> 95.5 µM	> 95.5 µM	–
CCC(C)C1NC(=O)C2CCCN2C(=O)C(Cc2ccc(O)cc2)NC(=O)C(CC(N)=O)NC(=O)C(CCC(N)=O)NC(=O)C(CO)NC(=O)C(C(C)C)NC(=O)C(N)CSSCC(C(=O)O)NC(=O)C(CCC(N)=O)NC(=O)C(C(C)C)NC1=O (stereo not drawn) (H-CVSQNYPIVQC-OH; disulfide 1-11; configuration not given here)	> 50.1 µM	> 50.1 µM	–
Cc1ccc(NC(=O)/C(=N/N(C)C)C(C2OC(=O)c3ccccc32)[N+](=O)[O-])cc1 (stereo not drawn)	> 47.9 µM	> 47.9 µM	–
CN(C)[C@@H]1C(=O)C(C(=O)NCN2CCN(C(=N)N=C(N)N)CC2)=C(O)[C@@]2(O)C(=O)C3=C(O)c4c(O)cccc4[C@@](C)(O)[C@H]3C[C@@H]12	> 37.2 µM	0.257 µM	–

SMILES	EC50	IC50	outcome
CC1(C)SC2c3ccccc3C(=O)N2C1C(=O)O (stereo not drawn)	> 955 µM	> 955 µM	–
CCCCCCC(C)CCCCCCCCCCC(=O)O (stereo not drawn)	–	–	inactive
CCCC(C(=O)Nc1cccc2[nH]cnc12)C(=O)OCC (stereo not drawn)	> 200 µM	158 µM	–
CCc1cccc(C)c1NC(=O)C1=C(C)NC(C)=C(C(=O)Nc2c(C)cccc2CC)C1c1ccc2c(c1)OCO2	> 24.5 µM	> 24.5 µM	–
COc1ccc(NC(C)=O)cc1N1C(=O)/C(=C\c2cccc(Oc3ccccc3)c2)S(=O)(=O)C1c1ccccc1 (stereo not drawn)	> 200 µM	33.1 µM	–
Clc1cccc(-n2cccc2)c1	> 200 µM	> 200 µM	–
COC(=O)N(CCc1ccccc1)C(C)(C)C#N	> 29.5 µM	> 29.5 µM	–
Cc1ccc(S(=O)(=O)c2c(N)n(CCN(C)C)c3nc4ccccc4nc23)cc1	> 200 µM	> 200 µM	–
NNC(=S)NN/C=C(\C=Nc1ccccc1)[N+](=O)[O-]	> 178 µM	155 µM	–
COC1/C=C/OC2(C)Oc3c(C)c(O)c4c(O)c(c(/C=N/N5CCCCC5)c(O)c4c3C2=O)NC(=O)C(C)=C/C=C/C(C)C(O)C(C)C(O)C(C)C(OC(C)=O)C1C (stereo not drawn)	> 200 µM	10.2 µM	–
COc1cc2c(cc1OCc1ccccc1)NC(=O)[C@@H]1CCCN1C2=O	> 200 µM	> 200 µM	–
COc1cc(C2SC(N)=Nc3c2c(C)nn3C(=O)Cc2ccccc2)ccc1O (stereo not drawn)	70.8 µM	> 200 µM	–
Cc1ccccc1-n1c(N)c(-c2nc3ccccc3[nH]2)sc1=S	> 4.27 µM	> 4.27 µM	–
O=c1[nH]cnc2c1sc(=S)n2-c1ccccc1	> 100 µM	70.8 µM	–
O=C1CCC(=O)N1Sc1ccccc1	–	–	inactive
CCC12C=CCN3CCC4(C(=C(C(=O)OC)C1)Nc1ccccc14)[C@H]32 (stereo partly drawn)	> 120 µM	5.25 µM	–
C=CCC(=S)NCCc1c[nH]c2ccccc12	> 200 µM	120 µM	–
COc1cnc2cc3c4c(cccc4c2c1)NC3=O	> 100 µM	3.98 µM	–
COCCNc1cncc(C(N)=O)c1	> 200 µM	> 200 µM	–
CSc1nc(N)c(NC2OC(CO)C(O)C2O)c(=O)[nH]1 (stereo not drawn)	81.3 µM and > 200 µM	110 µM and 112 µM	–
Cc1cccc(N2C(=O)/C(=C/c3ccc(N(CCC#N)CCC#N)cc3C)N=C2c2cc([N+](=O)[O-])ccc2Cl)c1	–	–	inactive
COC(=O)/C(C#N)=C1\CCc2ccccc21	> 1170 µM	> 1170 µM	–

SMILES	EC50	IC50	outcome
[N-]=[N+]=C(C(=O)CN1CCCC1=O)S(=O)(=O)c1ccccc1	> 813 µM	437 µM	–
O=[N+]([O-])C(/C=C(\Cl)n1nnc2ccccc21)=C(/Cl)n1nnc2ccccc21	> 200 µM	> 200 µM	–
C=CCOc1ccccc1C1(O)c2ccccc2C2=NCCCN21 (stereo not drawn)	> 200 µM	40.7 µM	–
Cn1ncc(NCCn2cnc3c2c(=O)n(C)c(=O)n3C)c(Cl)c1=O	> 200 µM	> 200 µM	–
N#C/C(=C\c1ccc(-c2ccccc2)cc1)c1ccccc1	> 200 µM	170 µM	–
CC#COS(=O)(=O)c1ccc(C)cc1	> 251 µM	110 µM	–
Cn1cc(C(=O)c2ccccc2)ccc1=O	> 617 µM	479 µM	–
O=Nc1ccccc1N=O	–	–	inactive
O/N=C1\CC2(N3CCOCC3)CCC1(c1ccccc1)CC2	–	–	inactive
Nc1ncnc2nc(C(O)C(O)C(O)CO)[nH]c12 (stereo not drawn)	> 102 µM	> 102 µM	–
CSc1ccc(/C=C2\CNC/C(=C\c3ccc(SC)cc3)C2=O)cc1	> 200 µM	58.9 µM	–
COC(=O)c1ccccc1C1CN=NC12Cc1ccc(C)cc1C2=O (stereo not drawn)	> 200 µM	63.1 µM	–
Nc1nncs1	> 1780 µM	871 µM	–
CCCCn1c(-c2ccc(Cl)cc2)cs/c1=N\Nc1nc2c(c(=O)n(C)c(=O)n2C)n1C	> 33.1 µM	11 µM	–
CC(C)CC(NC(=O)OCc1ccccc1)C(=O)NCCCCC(NC(=O)C(CCCCNC(=O)C(CC(C)C)NC(=O)OCc1ccccc1)NC(=O)C(CCCCNC(=O)C(CC(C)C)NC(=O)OCc1ccccc1)NC(=O)C(CCCCNC(=O)C(CC(C)C)NC(=O)OCc1ccccc1)NC(=O)OC(C)(C)C)C(=O)O (stereo not drawn) (Boc-K([Leu-Cbz])K([Leu-Cbz])K([Leu-Cbz])K([Leu-Cbz])-OH; configuration not given here)	> 100 µM	> 100 µM	–
CCOc1ccccc1Nc1nc(C)c(C(=O)CC(=O)C(=O)Nc2ccccc2)s1	> 158 µM	57.5 µM	–
CCOC(=O)C1(C#N)C(C#N)(C#N)C1(C#N)C#N	> 200 µM	> 200 µM	–
Cc1cc2c(=O)cc(-c3ccc(C(F)(F)F)cc3)oc2c(C(=O)O)c1C	–	–	inactive
CCOC(=O)CNC(=O)c1cccc2c(Nc3ccc(S(=O)(=O)Nc4cc(C)on4)cc3)c3ccccc3nc12	> 200 µM	12.3 µM	–
Cc1cc2c(cc1Cl)S(=O)(=O)OC(c1ccc([N+](=O)[O-])cc1)=N2	> 200 µM	115 µM	–
